Measurements reported in ChEMBL document CHEMBL5506024, “Multitarget μ-Opioid Receptor Agonists─Neuropeptide FF Receptor Antagonists Induce Potent Antinociception with Reduced Adverse Side Effects” (J Med Chem, 2024).
Activity calls are given as the source filed them. Numbered stars: 1 amine (or outer) side, 2 acyl side, 3 side chain; on linkers, the order of the positions; unused ones are H or OH. Square brackets hold non-standard residues; d marks the D form. Peptide text beside a SMILES is read from it. Nva(5-(4-Bn-piperidin-1-yl)) = N[C@@H](CCCN1CCC(Cc2ccccc2)CC1)C(=O)O; X1 = O=C1[C@@H](N[*:1])Cc2ccccc2CN1CCC(=O)[*:2]; Dmt = Cc1cc(O)cc(C)c1C[C@H](N)C(=O)O

Assays:
[1] = Induction of motor coordination impairment in C57BL/6 mouse at 20 mg/kg, sc by rotarod assay; type: toxicity, organism-based; conditions: in vivo
[2] = target: T1, Mu-type opioid receptor (Homo sapiens, UniProt P35372); test: Agonist activity at human MOP expressed in HEK293 cells coexpressing GloSensor-20F assessed as inhibition of forskolin-induced cAMP accumulation relative to control; type: functional, cell-based; conditions: filed as agonist
T1 sequence (P35372 whole entry): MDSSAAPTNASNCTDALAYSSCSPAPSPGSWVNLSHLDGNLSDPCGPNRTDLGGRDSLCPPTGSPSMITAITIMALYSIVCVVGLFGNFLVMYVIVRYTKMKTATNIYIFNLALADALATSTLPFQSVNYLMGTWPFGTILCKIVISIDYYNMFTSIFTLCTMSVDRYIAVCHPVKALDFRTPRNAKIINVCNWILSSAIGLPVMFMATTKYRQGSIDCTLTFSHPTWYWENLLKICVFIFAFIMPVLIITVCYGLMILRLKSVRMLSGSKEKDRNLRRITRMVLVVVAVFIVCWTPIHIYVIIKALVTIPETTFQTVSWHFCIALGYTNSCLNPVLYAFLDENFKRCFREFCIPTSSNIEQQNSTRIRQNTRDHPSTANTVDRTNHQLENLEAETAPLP

[3] = target: T1, Mu-type opioid receptor; test: Agonist activity at human Rluc8-tagged MOP expressed in HEK293 cells coexpressing eYFP-tagged beta-arrestin-2 assessed as beta-arrestin-2 recruitment incubated for 5 mins by luminometer analysis; type: functional, cell-based; conditions: hek293
[4] = target: T2, Neuropeptide FF receptor 1 (Homo sapiens, UniProt Q9GZQ6); test: Displacement of [125I]-1DMeNPFF from human NPFFR1 expressed in CHO cell membrane at 0.5 uM incubated for 1 hr by Topcount counting method relative to control; type: cell membranes
T2 sequence (Q9GZQ6 whole entry): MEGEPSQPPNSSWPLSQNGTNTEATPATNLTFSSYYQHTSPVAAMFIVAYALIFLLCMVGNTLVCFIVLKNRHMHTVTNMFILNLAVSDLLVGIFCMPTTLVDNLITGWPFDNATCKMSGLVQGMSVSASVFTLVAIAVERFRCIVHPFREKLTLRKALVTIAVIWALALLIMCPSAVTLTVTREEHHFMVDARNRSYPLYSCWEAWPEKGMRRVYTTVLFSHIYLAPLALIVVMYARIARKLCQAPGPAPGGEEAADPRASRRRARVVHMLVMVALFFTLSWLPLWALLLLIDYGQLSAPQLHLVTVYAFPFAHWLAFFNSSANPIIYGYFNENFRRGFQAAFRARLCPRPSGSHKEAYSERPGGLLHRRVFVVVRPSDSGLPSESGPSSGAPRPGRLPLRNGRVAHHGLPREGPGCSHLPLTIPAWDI

[5] = target: T2, Neuropeptide FF receptor 1; test: Antagonist activity at human NPFFR1 expressed in CHO cell membrane assessed as inhibition of NPVF induced cAMP response at 5 uM incubated for 1 hr by Topcount counting method relative to control; type: functional, cell membranes; parameters: scale not given: the % may be the effect or the level left
[6] = target: T3, Neuropeptide FF receptor 2 (Homo sapiens, UniProt Q9Y5X5); test: Displacement of [125I]-1DMeNPFF from human NPFFR2 expressed in CHO cell membrane at 0.05 uM incubated for 1 hr by Topcount counting method relative to control; type: cell membranes; conditions: filed as antagonist
T3 sequence (Q9Y5X5 whole entry): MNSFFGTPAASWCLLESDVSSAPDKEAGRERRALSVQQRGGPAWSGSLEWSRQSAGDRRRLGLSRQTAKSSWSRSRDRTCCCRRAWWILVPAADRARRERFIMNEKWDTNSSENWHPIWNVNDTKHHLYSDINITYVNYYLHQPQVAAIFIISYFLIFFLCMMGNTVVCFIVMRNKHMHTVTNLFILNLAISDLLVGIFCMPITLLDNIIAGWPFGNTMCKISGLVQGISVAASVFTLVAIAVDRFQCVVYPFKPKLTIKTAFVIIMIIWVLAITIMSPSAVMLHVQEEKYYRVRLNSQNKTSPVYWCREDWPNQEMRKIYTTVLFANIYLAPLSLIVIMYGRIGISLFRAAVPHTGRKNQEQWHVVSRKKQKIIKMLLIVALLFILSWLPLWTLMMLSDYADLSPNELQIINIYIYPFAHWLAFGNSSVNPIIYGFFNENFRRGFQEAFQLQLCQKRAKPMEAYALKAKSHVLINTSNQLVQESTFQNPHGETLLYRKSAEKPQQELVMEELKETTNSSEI

[7] = target: T3, Neuropeptide FF receptor 2; test: Antagonist activity at human NPFFR2 expressed in CHO cell membrane assessed as inhibition of NPVF induced cAMP response at 5 uM incubated for 1 hr by Topcount counting method relative to control; type: functional, cell membranes; parameters: scale not given: the % may be the effect or the level left; conditions: filed as antagonist
[8] = target: T2, Neuropeptide FF receptor 1; test: Displacement of [125I]-1DMeNPFF from human NPFFR1 expressed in CHO cell membrane incubated for 1 hr by Topcount counting method; type: cell membranes
[9] = target: T2, Neuropeptide FF receptor 1; test: Antagonist potency at human NPFFR1 expressed in CHO cell membrane assessed as inhibition of NPVF induced cAMP response incubated for 1 hr by Topcount counting method; type: functional, cell membranes; conditions: read-out: pA2 (converted)
[10] = target: T3, Neuropeptide FF receptor 2; test: Displacement of [125I]-1DMeNPFF from human NPFFR2 expressed in CHO cell membrane incubated for 1 hr by Topcount counting method; type: cell membranes
[11] = target: T3, Neuropeptide FF receptor 2; test: Antagonist potency at human NPFFR2 expressed in CHO cell membrane assessed as inhibition of NPVF induced cAMP response incubated for 1 hr by Topcount counting method; type: functional, cell membranes; conditions: read-out: pA2 (converted)
[12] = target: Delta-type opioid receptor (Homo sapiens) (UniProt P41143); test: Agonist activity at human DOP expressed in HEK293 cells assessed as inhibition of forskolin-induced cAMP accumulation; type: functional, cell-based; conditions: filed as agonist
Sequence of Delta-type opioid receptor (Homo sapiens) (P41143 whole entry): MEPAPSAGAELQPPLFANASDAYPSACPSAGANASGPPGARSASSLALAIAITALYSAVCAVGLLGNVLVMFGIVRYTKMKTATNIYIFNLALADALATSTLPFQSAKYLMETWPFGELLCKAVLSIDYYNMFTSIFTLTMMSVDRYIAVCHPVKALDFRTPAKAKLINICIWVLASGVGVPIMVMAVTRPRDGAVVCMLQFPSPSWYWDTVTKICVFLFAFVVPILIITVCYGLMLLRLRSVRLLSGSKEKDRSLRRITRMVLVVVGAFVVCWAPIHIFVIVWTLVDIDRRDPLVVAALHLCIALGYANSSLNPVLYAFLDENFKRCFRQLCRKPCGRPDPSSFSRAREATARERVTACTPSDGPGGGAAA

[13] = target: Kappa-type opioid receptor (Homo sapiens, UniProt P41145); test: Partial agonist activity at human KOR expressed in HEK293 cells assessed as forskolin-induced cAMP accumulation in presence of IBMX; type: functional, cell-based; conditions: filed as partial agonist
Sequence of Kappa-type opioid receptor (P41145 whole entry): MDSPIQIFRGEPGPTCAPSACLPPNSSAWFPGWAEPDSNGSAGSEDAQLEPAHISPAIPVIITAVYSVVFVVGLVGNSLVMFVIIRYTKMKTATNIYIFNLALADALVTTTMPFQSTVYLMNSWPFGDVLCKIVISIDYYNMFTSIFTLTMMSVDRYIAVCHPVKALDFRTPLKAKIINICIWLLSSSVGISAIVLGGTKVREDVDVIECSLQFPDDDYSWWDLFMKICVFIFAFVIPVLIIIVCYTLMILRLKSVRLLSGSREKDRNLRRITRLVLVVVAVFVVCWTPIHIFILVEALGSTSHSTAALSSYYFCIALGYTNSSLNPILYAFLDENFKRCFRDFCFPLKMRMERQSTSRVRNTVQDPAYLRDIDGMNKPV

[14] = target: Nociceptin receptor (Homo sapiens) (UniProt P41146); test: Partial agonist activity at human NOR expressed in HEK293 cells assessed as forskolin-induced cAMP accumulation in presence of IBMX; type: functional, cell-based; conditions: filed as partial agonist
Sequence of Nociceptin receptor (Homo sapiens) (P41146 whole entry): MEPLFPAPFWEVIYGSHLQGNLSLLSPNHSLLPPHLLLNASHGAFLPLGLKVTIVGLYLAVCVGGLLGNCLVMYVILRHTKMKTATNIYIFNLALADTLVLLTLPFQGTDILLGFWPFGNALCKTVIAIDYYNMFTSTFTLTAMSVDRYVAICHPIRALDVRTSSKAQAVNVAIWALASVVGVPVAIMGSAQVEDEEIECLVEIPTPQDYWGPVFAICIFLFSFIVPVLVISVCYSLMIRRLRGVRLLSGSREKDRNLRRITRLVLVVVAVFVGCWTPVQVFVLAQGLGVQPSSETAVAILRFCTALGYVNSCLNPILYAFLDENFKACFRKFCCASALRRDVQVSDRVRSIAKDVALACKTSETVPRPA

[15] = target: T4, Prolactin-releasing peptide receptor (Homo sapiens) (UniProt P49683); test: Agonist activity at human GPR10 expressed in CHO cells assessed as intracellular calcium release upto 10 uM by Fluo-4 AM dye based calcium mobilization assay; type: functional, cell-based
T4 sequence (whole entry): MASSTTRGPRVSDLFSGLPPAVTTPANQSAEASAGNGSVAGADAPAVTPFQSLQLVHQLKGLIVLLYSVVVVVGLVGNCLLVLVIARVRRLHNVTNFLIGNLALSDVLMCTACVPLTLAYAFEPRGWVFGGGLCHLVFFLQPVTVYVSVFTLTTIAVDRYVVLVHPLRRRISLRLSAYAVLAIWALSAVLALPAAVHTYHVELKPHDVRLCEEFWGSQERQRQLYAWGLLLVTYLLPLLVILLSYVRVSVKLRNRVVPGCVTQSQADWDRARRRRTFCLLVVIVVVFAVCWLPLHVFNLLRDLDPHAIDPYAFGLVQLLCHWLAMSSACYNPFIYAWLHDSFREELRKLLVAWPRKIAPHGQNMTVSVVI

[16] = target: KiSS-1 receptor (Homo sapiens) (UniProt Q969F8); test: Agonist activity at human GPR54 expressed in CHO cells assessed as intracellular calcium release upto 10 uM by Fluo-4 AM dye based calcium mobilization assay; type: functional, cell-based
Sequence of KiSS-1 receptor (Homo sapiens) (Q969F8 whole entry): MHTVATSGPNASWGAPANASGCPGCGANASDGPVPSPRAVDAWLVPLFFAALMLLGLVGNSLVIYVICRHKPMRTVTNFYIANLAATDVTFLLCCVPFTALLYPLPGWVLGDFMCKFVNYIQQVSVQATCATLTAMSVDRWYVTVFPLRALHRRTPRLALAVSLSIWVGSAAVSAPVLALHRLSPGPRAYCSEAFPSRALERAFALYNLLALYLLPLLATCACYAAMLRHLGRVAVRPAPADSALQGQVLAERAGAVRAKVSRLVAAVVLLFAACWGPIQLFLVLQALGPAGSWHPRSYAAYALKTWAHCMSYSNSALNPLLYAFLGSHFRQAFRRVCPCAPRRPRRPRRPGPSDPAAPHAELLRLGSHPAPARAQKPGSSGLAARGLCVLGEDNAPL

[17] = target: T5, Pyroglutamylated RF-amide peptide receptor (Homo sapiens) (UniProt Q96P65); test: Agonist activity at human GPR103 expressed in CHO cells assessed as intracellular calcium release upto 10 uM by Fluo-4 AM dye based calcium mobilization assay; type: functional, cell-based
T5 sequence (whole entry): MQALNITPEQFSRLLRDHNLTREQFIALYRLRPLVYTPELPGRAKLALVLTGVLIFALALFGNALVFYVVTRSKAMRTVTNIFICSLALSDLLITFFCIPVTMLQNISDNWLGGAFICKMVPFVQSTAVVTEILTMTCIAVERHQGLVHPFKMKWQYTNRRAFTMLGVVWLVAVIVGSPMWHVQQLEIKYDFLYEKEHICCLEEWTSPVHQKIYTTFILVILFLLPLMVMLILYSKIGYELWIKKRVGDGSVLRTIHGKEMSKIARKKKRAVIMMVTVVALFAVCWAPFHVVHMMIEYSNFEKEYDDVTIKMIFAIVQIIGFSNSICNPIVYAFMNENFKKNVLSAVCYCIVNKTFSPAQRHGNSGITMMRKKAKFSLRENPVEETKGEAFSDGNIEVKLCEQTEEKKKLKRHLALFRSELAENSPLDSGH

[18] = target: T4, Prolactin-releasing peptide receptor (Homo sapiens); test: Antagonist activity at human GPR10 expressed in CHO cells assessed as intracellular calcium release upto 10 uM by Fluo-4 AM dye based calcium mobilization assay; type: functional, cell-based
[19] = target: KiSS-1 receptor (Homo sapiens) (UniProt Q969F8); test: Antagonist activity at human GPR54 expressed in CHO cells assessed as intracellular calcium release upto 10 uM by Fluo-4 AM dye based calcium mobilization assay; type: functional, cell-based
[20] = target: T5, Pyroglutamylated RF-amide peptide receptor (Homo sapiens); test: Antagonist activity at human GPR103 expressed in CHO cells assessed as intracellular calcium release upto 10 uM by Fluo-4 AM dye based calcium mobilization assay; type: functional, cell-based
[21] = Cmax in mouse at 10 mg/kg, sc measured upto 24 hrs by LC-MS/MS analysis; type: ADME, organism-based; conditions: in vivo
[22] = Tmax in mouse at 10 mg/kg, sc measured upto 24 hrs by LC-MS/MS analysis; type: ADME, organism-based; conditions: in vivo
[23] = Half life in mouse at 10 mg/kg, sc measured upto 24 hrs by LC-MS/MS analysis; type: ADME, organism-based; conditions: in vivo
[24] = Drug concentration in mouse plasma at 10 mg/kg, sc measured after 2 hrs by LC-MS/MS analysis; type: ADME, organism-based
[25] = test system: Mus musculus; test: Antinociceptive activity in mouse at 2.5 to 10 mg/kg, sc measured after 6 hrs by tail immersion test; type: functional, organism-based; conditions: dose 2.5-10 mg/kg
[26] = test system: Mus musculus; test: Antinociceptive activity in mouse at 10 mg/kg, sc measured after 6 hrs in presence of naloxone methiodide by tail immersion test; type: functional, organism-based
[27] = test system: Mus musculus; test: Antinociceptive activity in mouse at 4.2 umol/kg, sc measured after 6 hrs in presence of naloxone methiodide by tail immersion test; type: functional, organism-based; conditions: dose 4.2 µmol/kg
[28] = test system: Mus musculus; test: Antinociceptive activity in mouse at 10 mg/kg, sc administered daily and measured on day 8; type: functional, organism-based
[29] = test system: Mus musculus; test: Antinociceptive activity in mouse assessed as basal nociceptive threshold at 10 mg/kg, sc administered daily and measured on day 2 to 7; type: functional, organism-based
[30] = Induction of naltrexone-precipitated withdrawal syndrome in sc dosed C57BL/6N mouse assessed as somatic signs administered for 8 days followed by naltrexone addition on day 9 after 2 hrs post last dose and measured after 30 mins; type: toxicity, organism-based; conditions: in vivo, 216.5 h, time 12990 min
[31] = Induction of naltrexone-precipitated withdrawal syndrome in sc dosed C57BL/6N mouse assessed as vegetative signs administered for 8 days followed by naltrexone addition on day 9 after 2 hrs post last dose and measured after 30 mins; type: toxicity, organism-based; conditions: in vivo, 216.5 h, time 12990 min
[32] = Toxicity in sc dosed C57BL/6N mouse assessed as induction of respiratory depression by measuring decrease in pulmonary rate by plethysmography; type: organism-based; conditions: in vivo
[33] = target: T1, Mu-type opioid receptor; test: Agonist activity at human MOP expressed in HEK293 cells coexpressing GloSensor-20F assessed as inhibition of forskolin-induced cAMP accumulation; type: functional, cell-based
[34] = target: Nociceptin receptor (Homo sapiens) (UniProt P41146); test: Agonist activity at human NOR expressed in HEK293 cells assessed as forskolin-induced cAMP accumulation; type: functional, cell-based
[35] = Drug metabolism in human plasma assessed as H-Dmt-D-Pro-OH formation measured upto 270 mins by LC-MS analysis; type: ADME, cell-free; conditions: 4.5 h
[36] = Drug metabolism in human plasma assessed as H-Aba-betaAla-Bpa-Phe-NH2 formation measured upto 270 mins by LC-MS analysis; type: ADME, cell-free; conditions: 4.5 h

| SMILES | Emax [2] [%] | EC50 [3] | Activity [4] [%] | Activity [6] [%] | Activity [7] [%] | Ki [8] [nM] | Kb [9] [nM] | Ki [10] [nM] | Kb [11] [nM] | Activity [12] | Activity [13] | Activity [15] | Activity [16] | Activity [17] | Activity [18] | Activity [19] | Activity [20] | Cmax [21] [nM] | Tmax [22] [h] | half-life [23] [h] | also measured |
| --- | --- | --- | --- | --- | --- | --- | --- | --- | --- | --- | --- | --- | --- | --- | --- | --- | --- | --- | --- | --- | --- |
| CN(C)CCC=C1c2ccccc2CCc2ccccc21 [AMITRIPTYLINE] |  |  |  |  |  |  |  |  |  |  |  |  |  |  |  |  |  |  |  |  | Activity [1]: Toxic |
| Cc1cc(O)cc(C)c1C[C@H](N)C(=O)N(C)[C@H](C)C(=O)N[C@H]1Cc2c(ccc3ccccc23)CN(CC(=O)N[C@@H](CCCN2CCC(Cc3ccccc3)CC2)C(=O)N[C@@H](Cc2ccccc2)C(N)=O)C1=O | 73 | Not Active | 22 | 51 | 80 | 1170 | 5890 | 54 | 102 | Active | Active | inactive | inactive | inactive | inactive | inactive | inactive | 446 | 1.83 | 3.88 | Activity [5]: 3%; Activity [14]: Active; concentration at 2 h [24]: 474 nM; Activity [25]: Active |
| CN1CC[C@]23c4c5ccc(O)c4O[C@H]2[C@@H](O)C=C[C@H]3[C@H]1C5 [MORPHINE] |  |  |  |  |  |  |  |  |  |  |  |  |  |  |  |  |  |  |  |  | Activity [26]: inactive; Activity [27]: inactive; Activity [28]: inactive; Activity [29]: inactive; Activity [30]: Toxic; Activity [31]: Toxic; Activity [32]: Dose-Dependent Effect |
| Cc1cc(O)cc(C)c1C[C@H](N)C(=O)N1CCC[C@@H]1C(=O)N[C@H]1Cc2ccccc2CN(CCC(=O)N[C@@H](CCCN2CCC(Cc3ccccc3)CC2)C(=O)N[C@@H](Cc2ccccc2)C(N)=O)C1=O (H-[Dmt][dP][X1][Nva(5-(4-Bn-piperidin-1-yl))]F-NH2) | 50 | Not Active | 33 | 72 | 46 | 1190 | 6310 | 29 | 380 | Active | Active | inactive | inactive | inactive | inactive | inactive | inactive | 345 | 0.139 | 0.28 | EC50 [33]: 8 nM; Activity ([5]; filed as antagonist): 75%; Activity [34]: inactive; concentration at 2 h [24]: 10.7 nM; Drug metabolism [35]: Metabolite_Detected; Drug metabolism [36]: Metabolite_Detected; Activity [25]: Active |
